{"source": "patent US4535081A", "about": "“Antiallergic and antiulcer 1-oxo-1H-thiazolo[3,2-a]pyrimidine-2-carboxamides and intermediates therefor” (Pfizer Inc., priority 1983, dated 1985)", "key": {"[1]": {"experiment": "Plasma levels after repeated daily dosing", "assay_type": "in vivo", "conditions": "after the eighth daily dose of III", "protocol": "(§1) This is supported by the observations of plasma concentrations of 3 to 7 μg/ml one hour after oral administration of III, 50 to 300 mg/kg."}, "rats": {"tested_on": "rats", "experiment": "Oral toleration, 10 days, rats", "assay_type": "in vivo, rat", "conditions": "10 days, 50, 150 and 300 mg/kg/day", "protocol": "Rats were given III orally by gavage at doses of 50, 150 and 300 mg/kg/day for 10 days."}, "serum enzyme levels": {"tested_on": "serum enzyme levels", "experiment": "Serum enzyme levels, intravenous five days, dogs", "assay_type": "in vivo, dog", "conditions": "five days, 1, 3, 10, 3 and 3 mg/kg"}, "isolated rat monocytes": {"tested_on": "isolated rat monocytes", "experiment": "Synthesis and release of SRC in isolated monocytes stimulated by an ionophore", "assay_type": "cell-based"}, "[2]": {"tested_on": "passive cutaneous anaphylaxis (PCA)", "experiment": "Intravenous activity in PCA test", "assay_type": "in vivo, rat", "protocol": "In the PCA test, normal animals are injected intradermally (i.d.) with antibodies contained in serum obtained from actively sensitized animals. The animals are then challenged intravenously with antigen mixed with a dye such as Evans' Blue. The increased capillary permeability caused by the antigen-antibody reaction causes the dye to leak from the site of the antibody injection. The test animals are then asphyxiated and the intensity of the reaction determined by measuring the diameter and intensity of the blue coloration on the inner surface of the animals' skin.\nThe ability of agents to interfere with PCA reactions is measured in male Charles River Wistar rats, 170-210 g. Reaginic antiserum, rich in IgE antibodies, is prepared according to Petillo et al., Int. Arch. […] Hyperimmune antiserum rich in IgG antibodies to hen egg albumin is prepared according to Orange et al., J. Exptl. […] Forty-eight hours prior to antigen challenge, the reaginic antiserum is injected intradermally (i.d.) into the shaved skin of a normal rat's back; 5 hours before challenge the hyperimmune antisera is similarly injected. […] The difference is expressed as percent blockage due to the compound employed."}, "[3]": {"experiment": "Oral absorption and plasma concentrations, dogs", "assay_type": "in vivo, dog", "protocol": "as §1"}, "point mutations": {"tested_on": "point mutations", "experiment": "Ames test in vitro", "assay_type": "cell-based"}, "ethanol-induced ulcer": {"tested_on": "ethanol-induced ulcer", "experiment": "Ethanol-induced rat ulcer assay", "assay_type": "in vivo", "conditions": "oral, 5 mg./kg.; Table III; listed as Formula I: (CH2)4", "protocol": "Alternatively, the effectiveness of the products of this invention as antiulcer agents is determined in an ethanol-induced rat ulcer assay. In this test, overnight fasted male rats are given drug (5 mg./kg.) or water orally fifteen minutes prior to an orally administered dose of absolute ethanol (1.0 ml.). One hour after the ethanol challenge the animals (8/group) are killed and the stomachs examined for the presence of lesions. All drugs were dissolved in dilute NaOH. After sacrifice the abdomen is opened and a locking hemostat placed at the pylorus. 6 ml. of a 4% solution of formaldehyde was injected into the stomach with a gastric feeding tube and a second locking hemostat was used to seal the esophagus. The stomach was removed, opened along the greater curvature and examined for ulceration.\nThe scoring system used to quantitate the ethanol-induced lesions is given below.\nFor each group of animals an ulcer index is calculated as follows:\nUlceration Index=(the sum of the scores of the group)×(the sum of the number of ulcers in the group)×(the fraction of the group having any incidence of ulceration).\nThe percentage inhibition of ulcers is calculated as follows:\n% Inhibition=100×[(ulcer index controls)-(ulcer index drug-treated)].div.(ulcer index controls)."}, "human lymphocytes": {"tested_on": "human lymphocytes", "experiment": "Chromosomal breakage in human lymphocytes in vitro", "assay_type": "cell-based", "conditions": "1000, 100, 10 or 0 μg/ml"}, "[4]": {"tested_on": "isolated guinea pig ileum (acetylcholine)", "experiment": "Isolated ileum spasm, acetylcholine", "conditions": "10^-8 to 10^-4 M"}, "blood glucose levels": {"tested_on": "blood glucose levels", "experiment": "Blood glucose in fasted rats", "assay_type": "in vivo, rat", "conditions": "fasted 24 hours; oral 10, 30 or 100 mg/kg"}, "[5]": {"tested_on": "pentagastrin-stimulated acid output", "experiment": "Pentagastrin-stimulated acid output in Heidenhain pouch dogs", "assay_type": "in vivo, dog", "conditions": "5 mg/kg, i.v."}, "dogs": {"tested_on": "dogs", "experiment": "Toleration study, oral, seven days, dogs", "assay_type": "in vivo, dog", "protocol": "In toleration studies, III were given orally by gavage to dogs for a period of seven days at doses of 50, 150 and 300 mg/kg/day."}, "[6]": {"tested_on": "plasma histamine rise in rats passively sensitized with IgE-rich antiserum", "experiment": "Passive systemic anaphylaxis, plasma histamine rise", "assay_type": "in vivo, rat"}, "glucose tolerance": {"tested_on": "glucose tolerance", "experiment": "Glucose tolerance in rats", "assay_type": "in vivo, rat", "conditions": "10, 30, or 100 mg/kg p.o. with glucose 1 g/kg p.o.", "from_the_text": "This effect may be due to a delayed absorption of glucose related to a possible effect on gastric emptying."}, "[7]": {"conditions": "oral, 7 days, 50, 150 and 300 mg/kg/day"}}, "note": "“And” between values parts separate entries of the source, which are not always exact repeats. Identical values can stand only once."}
{"smiles": "O=C(Nc1nnn[nH]1)c1cnc2sc3c(n2c1=O)CCCC3", "note": "[Compound III, N-(5-Tetrazolyl)-1-oxo-1H-cyclohexenothiazolo[3,2-a]pyrimidine-2-carboxamide]", "values": [{"measurement": "levels after the eighth daily dose relative to initial dose", "setting": "[1]", "value": "2 to 4", "unit": "times"}, {"measurement": "pathological changes, gross and microscopic (liver, kidney, heart, lung)", "setting": "rats; oral gavage", "value": "no resultant pathological changes"}, {"measurement": "clinical chemistry apart from serum glutamic-pyruvic transaminase", "setting": "rats; oral", "value": "no changes in clinical chemistry were observed"}, {"measurement": "serum enzyme levels", "setting": "serum enzyme levels", "value": "remained normal"}, {"measurement": "synthesis and release of SRC", "setting": "isolated rat monocytes", "value": "is not inhibited"}, {"measurement": "intravenous activity range in the PCA test", "setting": "[2]", "value": "0.03 to 1.0", "unit": "mg/kg"}, {"measurement": "potency relative to Intal in the PCA test", "setting": "[2]; vs Intal", "value": "~26", "unit": "times"}, {"measurement": "plasma concentration", "setting": "[3]; one hour after oral 50 to 300 mg/kg, 60 min", "value": "9000 to 26000", "unit": "ng/mL"}, {"measurement": "oral absorption", "setting": "[3]; suspensions or capsules", "value": "absorbed readily after oral administration"}, {"measurement": "point mutations in Ames test", "setting": "point mutations", "value": "did not induce point mutations"}, {"measurement": "% Inhibition in the Ethanol-Induced Rat Ulcer Assay, amides", "setting": "ethanol-induced ulcer", "value": "97% and 81%"}, {"measurement": "drug-induced chromosomal breakage, human lymphocytes", "setting": "human lymphocytes", "value": "failed to reveal any significant drug-induced chromosomal breakage"}, {"measurement": "antagonism of spasm of isolated guinea pig ileum", "setting": "[4]", "value": "does not antagonize spasms"}, {"measurement": "blood glucose levels", "setting": "blood glucose levels", "value": "did not exhibit any changes in blood glucose levels"}, {"measurement": "pentagastrin-stimulated acid output", "setting": "[5]", "value": "does not affect pentagastrin-stimulated acid output"}, {"measurement": "emetic effect, capsule after meals", "setting": "dogs; capsule after, rather than before, meals", "value": "could be eliminated"}, {"measurement": "gross pathological changes", "setting": "dogs; [7]", "value": "No gross pathological changes were observed"}, {"measurement": "microscopic examination of liver, kidney, heart and lung", "setting": "dogs; [7]", "value": "did not reveal any changes"}, {"measurement": "potency relative to Intal, passive systemic anaphylaxis", "setting": "[6]; i.v., vs Intal", "value": 13, "unit": "times"}, {"measurement": "passive systemic anaphylaxis", "setting": "[6]; rat, in vivo", "value": "prevented"}, {"measurement": "glucose tolerance", "setting": "glucose tolerance", "value": "apparent dose-dependent improvement in glucose tolerance"}]}
